The test system of assay [1] is HeLa. The assay can be described thus: Cell cycle arrest in human HeLa cells assessed as accumulation at G2/M phase at 10 uM after 24 hrs by FACS flow cytometric analysis (reference value: 3.9 +/- 0.10%). The format is functional.
Assay [2] concerns HeLa. Put plainly: Cell cycle arrest in human HeLa cells assessed as accumulation at G0/G1 phase at 10 uM after 24 hrs by FACS flow cytometric analysis (reference value: 69.9 +/- 2.41%). The class given is functional. (In flow cytometry, cells or beads pass a laser one at a time.)
Assay [3] relates to HeLa. Put plainly: Antiproliferative activity against human HeLa cells after 48 hrs by MTT assay. The format is functional, cell-based. Background: Tetrazolium dyes change colour on reduction, which living cells bring about.
Assay [4] can be described thus: Inhibition of choline kinase in human HepG2 cells assessed as incorporation of [14C] from [methyl-14C]choline into phosphocholine after 20 mins by liquid scintillation counting analysis. The format is cell-based.
The subject of assay [5] is HeLa. The assay can be described thus: Induction of apoptosis in human HeLa cells at 10 uM after 24 hrs by annexin V-FITC/propidium iodide staining-based FACS flow cytometric analysis. The class given is functional, cell-based.
Assay [6] deals with HeLa. Put plainly: Cell cycle arrest in human HeLa cells assessed as accumulation at S phase at 10 uM after 24 hrs by FACS flow cytometric analysis (reference value: 25 +/- 2.53%). The class given is functional.
Assay [7] has as its system HeLa. Put plainly: Induction of apoptosis in human HeLa cells assessed as upregulation of caspase-3 protein expression after 12 to 48 hrs by Western blot analysis. The class given is functional, cell-based. A general note: Immunoblotting shows a protein as a band on a membrane.
The target in assay [8] is Choline kinase alpha (Homo sapiens, UniProt P35790). The assay can be described thus: Binding affinity to human CK-alpha1 by tryptophan fluorescence spectroscopic analysis.
Chain of Choline kinase alpha (P35790 whole entry): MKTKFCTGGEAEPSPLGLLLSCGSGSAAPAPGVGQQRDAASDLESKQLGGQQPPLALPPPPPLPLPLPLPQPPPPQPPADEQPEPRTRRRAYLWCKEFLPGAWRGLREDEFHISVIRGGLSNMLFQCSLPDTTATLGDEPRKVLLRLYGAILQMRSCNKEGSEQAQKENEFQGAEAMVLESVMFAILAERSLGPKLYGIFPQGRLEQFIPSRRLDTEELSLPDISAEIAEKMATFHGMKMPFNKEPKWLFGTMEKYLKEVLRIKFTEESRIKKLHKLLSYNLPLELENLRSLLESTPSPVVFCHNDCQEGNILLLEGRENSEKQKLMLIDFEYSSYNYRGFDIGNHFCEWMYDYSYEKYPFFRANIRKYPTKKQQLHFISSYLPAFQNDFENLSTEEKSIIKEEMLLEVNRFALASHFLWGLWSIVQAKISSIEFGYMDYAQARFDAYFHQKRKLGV
Assay [9] is filed under the species Homo sapiens. Put plainly: Selectivity ratio of Kd for human CK-beta to Kd for human CK-alpha1.
Assay [10] deals with Choline/ethanolamine kinase (Homo sapiens, UniProt Q9Y259). The assay can be described thus: Binding affinity to human CK-beta by tryptophan fluorescence spectroscopic analysis.
Chain of Choline/ethanolamine kinase (Q9Y259 whole entry): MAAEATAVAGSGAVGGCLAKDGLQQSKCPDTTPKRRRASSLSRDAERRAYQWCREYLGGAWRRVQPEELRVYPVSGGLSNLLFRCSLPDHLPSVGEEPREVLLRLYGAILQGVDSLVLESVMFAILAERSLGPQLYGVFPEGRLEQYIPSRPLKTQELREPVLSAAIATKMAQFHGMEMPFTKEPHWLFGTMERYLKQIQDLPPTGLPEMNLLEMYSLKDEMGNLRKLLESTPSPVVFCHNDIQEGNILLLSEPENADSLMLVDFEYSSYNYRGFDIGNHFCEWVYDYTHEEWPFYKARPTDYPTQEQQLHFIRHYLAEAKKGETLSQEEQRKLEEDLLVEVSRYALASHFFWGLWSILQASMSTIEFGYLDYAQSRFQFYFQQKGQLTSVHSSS
The subject of assay [11] is HeLa. Put plainly: Induction of apoptosis in human HeLa cells at 10 uM after 24 hrs by annexin V-FITC/propidium iodide staining-based FACS flow cytometric analysis (reference value: 14.8%). The class given is functional.

These results are taken from ChEMBL document CHEMBL3112426, “Discovery of a new binding site on human choline kinase α1: design, synthesis, crystallographic studies, and biological evaluation of asymmetrical bispyridinium derivatives” (J Med Chem, 2014).

Calls of active or inactive are those of the source. The rule behind the calls is not given here.

As usually defined, the IC50 is the concentration that inhibits the measured activity by half. As to `CN(c1ccc(Cl)cc1)c1cc[n+](Cc2ccc(-c3ccc(C[n+]4ccc(N5CCCC5)cc4)cc3)cc2)cc1.[Br-].[Br-]`, the Activity in assay [1] came to 3.1%; in assay [2], 73.1%; in assay [6], 23.8%. For the same compound, the IC50 worked out at 4100 nM in [3] and 2200 nM in assay [4]. Also, in assay [5], the outcome was Active.
As to `CN(c1ccc(Cl)cc1)c1cc[n+](Cc2ccc(CCCCc3ccc(C[n+]4ccc(N5CCCC5)cc4)cc3)cc2)cc1.[Br-].[Br-]`, the Activity in assay [1] stood at 1.3%; in [2], 83.3%; in assay [6] it was 15.4%. The IC50 is 2100 nM in assay [3] and 1500 nM in [4]. Also, the result in assay [5] was Active.
On to `CC(=O)O[C@H]1C(=O)[C@@]2(C)[C@H]([C@H](OC(=O)c3ccccc3)[C@]3(O)C[C@H](OC(=O)[C@H](O)[C@@H](NC(=O)c4ccccc4)c4ccccc4)C(C)=C1C3(C)C)[C@]1(OC(C)=O)CO[C@@H]1C[C@@H]2O` [PACLITAXEL], for which 8 ng/mL corresponded to half-maximal inhibition in assay [3] (IC50). In assay [7], the Activity entry is “Dose-dependent effect”.
A word on the Kd: it is a measure of binding affinity in units of concentration. Lower therefore signals tighter binding. Consider `CN(C)c1cc[n+](Cc2ccc(-c3ccc(C[n+]4ccc(N(C)c5ccc(Cl)cc5)cc4)cc3)cc2)cc1`, for which binding in [8] was put at a Kd of 620 nM. In addition, the IC50 in assay [3] came to 11700 nM; in assay [4], 1500 nM.
Turning to `CN(C)c1cc[n+](Cc2ccc(-c3ccc(C[n+]4ccc(N5CCCC5)cc4)cc3)cc2)cc1.[Br-].[Br-]`, the values for the Activity in [1], in [2] and in assay [6] were 2.7%, 72.8% and 24.5%, respectively. For the same compound, the results for the IC50 in assay [3] and in assay [4] were 3700 nM and 800 nM, respectively. Also, the outcome in assay [5] was Active.
On to `CN(C)c1cc[n+](Cc2ccc(CCc3ccc(C[n+]4ccc(N5CCCC5)cc4)cc3)cc2)cc1.[Br-].[Br-]`, for which the Activity was 2.6% in assay [1], 72.5% in [2] and 24.9% in assay [6]. The same compound gave an equilibrium dissociation constant (Kd) in assay [8] of 400 nM. The values for the 50% inhibitory concentration (IC50) in assay [3] and in [4] were 8600 nM and 1200 nM, respectively. In addition, the outcome in assay [5] was Active.
Regarding `CN(C)c1cc[n+](Cc2ccc(CCCCc3ccc(C[n+]4ccc(N(C)c5ccc(Cl)cc5)cc4)cc3)cc2)cc1.[Br-].[Br-]`, the Activity in [1] is 0.9%; in assay [2], 85.9%; in assay [7] it was “Dose-dependent effect”; in [11], 55.6%; in [6], 12.8%. Moreover, the half-maximal inhibitory concentration (IC50) in assay [3] is 1900 nM; in assay [4], 1200 nM. For the same compound, the Selectivity ratio in assay [9] stood at 200. The Kd in assay [10] came to 22000 nM. Further, in [5], the result was Active.
For the compound `CN(C)c1cc[n+](Cc2ccc(CCCCc3ccc(C[n+]4ccc(N5CCCC5)cc4)cc3)cc2)cc1.[Br-].[Br-]`, the Activity in assay [1] is listed as 2.8%; in assay [2] it was 77.8%; in assay [6], 19.2%. Besides, the half-maximal inhibitory concentration (IC50) came to 2100 nM in assay [3] and 900 nM in assay [4]. Moreover, in assay [5], the outcome was Active.
Turning to `CN(c1ccc(Cl)cc1)c1cc[n+](Cc2ccc(CCc3ccc(C[n+]4ccc(N5CCCC5)cc4)cc3)cc2)cc1.[Br-].[Br-]`, the values for the Activity in assay [1], in assay [2] and in assay [6] were 2.2%, 77% and 20.8%, respectively. For the same compound, the half-maximal inhibitory concentration (IC50) came to 9400 nM in assay [3] and 2500 nM in [4]. Besides, the result in assay [5] was Active.
On to `CN(C)c1cc[n+](Cc2ccc(CCc3ccc(C[n+]4ccc(N(C)c5ccc(Cl)cc5)cc4)cc3)cc2)cc1.[Br-].[Br-]`, for which the Activity was 1.8% in assay [1], 83.3% in assay [2] and 14.9% in assay [6]. In addition, the IC50 in assay [3] was 1300 nM; in assay [4], 700 nM. For the same compound, the outcome in assay [5] was Active.
For `CN(C)c1cc[n+](Cc2ccc(C[n+]3ccc(N(C)c4ccc(Cl)cc4)cc3)cc2)cc1`, the IC50 in [3] is 24600 nM; in assay [4] it was 900 nM.
The corresponding values for `CN(c1ccc(Cl)cc1)c1cc[n+](Cc2ccc(C[n+]3ccc(N4CCCC4)cc3)cc2)cc1` are 48100 nM and 600 nM.
The corresponding values for `CN(C)c1cc[n+](Cc2ccc(C[n+]3ccc(N4CCCC4)cc3)cc2)cc1` are 15900 nM and 8000 nM.
